The text below walks through data of patent US20150174158A1, “[…] NITRIC OXIDE FOR TREATING RESPIRATORY DISEASES” (Advanced Inhalation Therapies (AIT) Ltd., priority 2012, published 2015).

Data set [1] concerns human respiratory syncytial virus (rgRSV30). Briefly: RSV plaque assay after 30 min exposure to 160 ppm gNO. The data set is classed as cell-based. Conditions: single 30 min exposure to 160 ppm gNO; starting 500 PFU. The method, then: The efficacy of treating viral infection by respiratory syncytial virus by the methods presented herein was tested by exposure for 30 minutes of human respiratory syncytial virus (rgRSV30) to a gas mixture containing 160 ppm nitric oxide, using standard plaque assay as described hereinabove.
FIGS. 3A-D present the data obtained in the experiment using tissue culture samples harboring human rgRSV30, coupled to a green fluorescent protein, wherein the control experiment the samples were exposed to a ambient air (data not shown), and the tested samples having a starting viral level of 2000 PFU (FIG. 3A), 1000 PFU (FIG. 3B) and 500 PFU (FIG. 3C), were exposed to 160 ppm gNO for 30 minutes, whereas FIG. 3D presents a comparative bar plot comparing the control to test results.

A further data set relates to methemoglobin (SpMet). Briefly: Phase I safety study: methemoglobin (SpMet) by pulse oximeter. The data set is classed as in vivo, human. Here is the method: (§1) After obtaining informed consent, treatment was initiated within 5 days of enrollment. Subjects were housed in a hospital ward and received 160 ppm gNO for 30 minutes every four hours (Q4h), five times a day, for five consecutive days by inhalation. Subjects returned for follow-up evaluations 3, 7 and 21 days after the final gNO administration. Subject safety was determined by monitoring vital signs, methemoglobin levels, lung function, blood chemistry, hematology, prothrombin time, inflammatory cytokine/chemokines levels and endothelial activation. These parameters were compared to baseline and at various time-points during and after gNO administration.
The levels of gNO, NO2, O2 and methemoglobin were monitored during the administration of gNO. The target gas mixture was 160 ppm gNO with a nitrogen dioxide (NO2) level of less than 5 ppm and an oxygen (O2) level ranging from 21% to 25%. Inspiratory NO, NO2 and O2 levels were continuously monitored by sampling from the mouthpiece sample port located about 6 millimeters from the mouth of the subject with an AeroNOx (Pulmonox, AB, Canada) NO, NO2 and O2 electrochemical analyzer. Delivery safety was determined by the number of occasions that NO2 exceeded 5 ppm, gNO exceeding 10% variation and O2 dropping below 20% during gNO administration. A commercially available noninvasive pulse oximeter (Rad 57, Masimo Corporation, USA) was used to measure saturation levels at the periphery of methemoglobin (SpMet).
These parameters were measured continuously during every gNO administration course and for 3.5 hours after the first treatment of the day. Daily serum samples were collected and frozen at −80° C. and the serum […] level was measured using the Griess reagent.
FIGS. 4A-B present results of monitoring methemoglobin levels before, during and after inhalation of 160 ppm of gaseous nitric oxide by 10 healthy human individuals, undergone 5 gNO administration courses daily, each lasting 30 minutes, for 5 consecutive days, while methemoglobin levels were measured using a pulse oximeter, wherein FIG. 4A is a plot of methemoglobin levels by percents as a function of time as measured before (time point 0), during 250 individual 30 minutes gNO administration courses (time interval of 0 to 30 minutes), after the courses (time interval of 30 to 60 minutes) and at 120 minutes, 180 minutes and 240 minutes after gNO administration was discontinued, and FIG. 4B is a plot of methemoglobin levels by percents as a function of time as measured at the beginning and end of 30 minutes gNO administration courses given over the course of 5 days, and followed 8, 12 and 26 days after gNO administration was discontinued.

Data set [2] is described as follows: Phase I safety study: hematology, blood chemistry, coagulation. The data set is classed as in vivo, human. To be noted: baseline 0.15 (SD=0.12); SD=0.19; p=0.104. The method, then: as §1
Hematological assessment included a complete blood count and differentials (hemoglobin, hematocrit, red blood cell count, white blood cell count, white blood cell differential, and platelet count) were obtained in order to monitor blood chemistry, hematology and inflammation measurements. […] The effect of gNO on coagulation was determined by the prothrombin time (PT) and its derived measures of prothrombin ratio (PR) and international normalized ratio (INR). […] Plasma cytokine levels were assessed using the human inflammation cytokine bead array kit (BD Bioscience, Canada). Plasma levels of angiopoietin Ang-1 and Ang-2 were determined by ELISA (R&D Systems, USA).

Data set [3] is described as follows: Phase I safety study: pulmonary function tests. The data set is classed as in vivo, human. The method, then:
as §1
Subjects underwent full pulmonary function tests (PFT), including lung diffusing capacity (DLCO) by a trained technician utilizing a calibrated pulmonary function system (Jaeger MasterScreen, VIASYS Healthcare, USA) on screening and days 2, 8, 12 and 26. Spirometry test (Microloop by Micro Medical, England) was performed on days 1, 3 and 4. Effect of gNO on lung function and DLCO was determined by changes from baseline, treatment days and follow up days. […]

A further data set has as its system Acinetobacter sp. To be noted: 200 ppm gNO; saline; cited from earlier work.
Another data set has as its system Mycobacterium. To be noted: 200 ppm gNO; saline; cited from earlier work.
The conditions of data set [4]: cited from earlier work.
The conditions of data set [5]: gNO concentrations below 200 ppm, 6 hours/day for 28 days; cited from earlier work.
The test system of data set [6] is Pseudomonas aeruginosa pneumonia. To be noted: 160 ppm gNO, intermittent 30 minute exposures; cited from earlier work.

As for `[N]=O` [gNO, nitric oxide], in data set [1], the viral viability result was “substantially nullified”. Besides, the “residual increase in SpMet at follow-up” value in the data set with methemoglobin (SpMet) (3, 7 and 21 days after final exposure) is on record as “did not show any residual increase”. In the data set with methemoglobin (SpMet) (after 30 min 160 ppm gNO), the “time for SpMet to return to baseline” value was 3.5 h. The “highest SpMet” value in the data set on methemoglobin (SpMet) (end of the 30 minutes treatment, 160 ppm gNO, baseline 0.16 (SD=0.10)) amounted to 2.5%. Further, the “accumulative effect on SpMet” value in the data set with methemoglobin (SpMet) (five daily treatments for five consecutive days) is recorded as “no accumulative or lingering effect”. Also, the “average increase of SpMet” value with methemoglobin (SpMet) (single 30 min treatment course, 160 ppm gNO, SD=0.08) came to 0.9%. Further, the “eosinophil cell numbers, end of study” value in data set [2] is listed as 0.19 giga/L. For the same compound, the “pulmonary function tests, abnormalities” value in [3] (during and after gNO administration) is “did not reveal any abnormalities”. For the same compound, the “DLCO, FVC, TLC and RV” value in data set [3] (vs baseline) is recorded as “did not change from baseline”. The “FEV1 and maximum mid-expiratory flow (MMEF)” value in [3] (vs baseline during the course of the study) is “did not differ from baseline”. In the data set with Acinetobacter sp., the LD100 is 6 h, the “Latent Period” value was 4 h and the “−2.5 Log10” value is on record as 5 hours. In the data set with Mycobacterium, the LD100 was 10 h, the “Latent Period” value was 7 h and the “−2.5 Log10” value is given as 9.2 hours. Further, the “radius of action from site of origin” value in data set [4] (in vivo) is on record as “approximately 200 microns”. In data set [4] (predominant metabolite), the “nitrate excreted in the urine, share of nitric oxide dose inhaled” value is “more than 70%”. Besides, the deaths entry in data set [5] is “No deaths occurred”. For the same compound, in data set [6], the “pulmonary bioburden and leukocyte infiltration” value is “effective to reduce the pulmonary bioburden and leukocyte infiltration”.
